{"source": "paper PMC6001238", "about": "“Iterative Chemical Engineering of Vancomycin Leads to Novel Vancomycin Analogs With a High in Vitro Therapeutic Index” (Frontiers in Microbiology, 2018)", "key": {"B. subtilis PSB3": {"tested_on": "B. subtilis PSB3", "experiment": "MIC, broth microdilution, B. subtilis PSB3", "assay_type": "cell-based, Bacillus subtilis", "description": "(§1) The minimum inhibitory concentration (MIC) was determined using the broth microdilution method according to the antimicrobial susceptibility testing standards of the clinical and laboratory standards institute ([Clinical and Laboratory Standards Institute [CLSI], 2012]). Ultrapure water and non-inoculated broth were used as controls. In one case, a final concentration of 10 μM vancomycin was included with the vancomycin analog or control antibiotic."}, "E. coli XL-1 blue MRF'": {"tested_on": "E. coli XL-1 blue MRF'", "experiment": "MIC, broth microdilution, E. coli XL-1 blue MRF'", "assay_type": "cell-based, Escherichia coli", "settings": "E. coli XL-1 blue MRF'", "description": "as §1"}, "E. faecalis VSE 1": {"tested_on": "E. faecalis VSE 1", "experiment": "MIC, broth microdilution, vancomycin-sensitive E. faecalis (VSE 1)", "assay_type": "cell-based, Enterococcus faecalis", "settings": "for MIC: read-out: MIC", "summary_of_the_method": "(§2)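 Following CLSI antimicrobial susceptibility standards, organisms were tested by broth microdilution. Controls comprised ultrapure water plus broth left uninoculated. For a single condition, 10 μM vancomycin (final) accompanied the analog or control agent.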"}, "E. faecalis VRE 6": {"tested_on": "E. faecalis VRE 6", "experiment": "MIC, broth microdilution, vancomycin-resistant E. faecalis VRE 6 (VanA)", "assay_type": "cell-based, Enterococcus faecalis", "settings": "for MIC: read-out: MIC", "summary_of_the_method": "as §2"}, "E. faecalis VRE 53": {"tested_on": "E. faecalis VRE 53", "experiment": "MIC, broth microdilution, vancomycin-resistant E. faecalis VRE 53 (VanA)", "assay_type": "cell-based, Enterococcus faecalis", "settings": "for MIC: read-out: MIC", "summary_of_the_method": "as §2"}, "E. faecalis VRE 29": {"tested_on": "E. faecalis VRE 29", "experiment": "MIC, broth microdilution, vancomycin-resistant E. faecalis VRE 29 (VanA)", "assay_type": "cell-based, Enterococcus faecalis", "summary_of_the_method": "as §2"}, "E. faecalis VRE 37": {"tested_on": "E. faecalis VRE 37", "experiment": "MIC, broth microdilution, vancomycin-resistant E. faecalis VRE 37 (VanA)", "assay_type": "cell-based, Enterococcus faecalis", "summary_of_the_method": "as §2"}, "[1]": {"tested_on": "Murine leukemia (L1210) cells", "experiment": "Cytostatic activity, L1210 cell proliferation", "assay_type": "cell-based", "settings": "mean ± SD of three experiments; highest concentration tested 250 µM; 2 days; read-out: Toxicity (IC50) L1210", "summary_of_the_method": "(§3)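 Suspensions (300,000–500,000 cells/mL) combined with equal volumes of diluted compound; 37°C; L1210 2 d / CEM 3 d / HeLa 4 d; counted by Coulter counter; IC50 vs untreated wells.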"}, "[2]": {"tested_on": "human T-lymphocyte (CEM) cells", "experiment": "Cytostatic activity, CEM cell proliferation", "assay_type": "cell-based", "settings": "mean ± SD of three experiments; highest concentration tested 250 µM; 3 days; read-out: Toxicity (IC50) CEM", "summary_of_the_method": "as §3"}, "[3]": {"tested_on": "human cervix carcinoma (HeLa) cells", "experiment": "Cytostatic activity, HeLa cell proliferation", "assay_type": "cell-based", "settings": "mean ± SD of three experiments; highest concentration tested 250 µM; 4 days; read-out: Toxicity (IC50) HeLa", "summary_of_the_method": "as §3"}, "[4]": {"tested_on": "L1210, CEM and HeLa cell lines", "experiment": "Cytostatic activity, average or summary over L1210, CEM and HeLa", "assay_type": "cell-based", "summary_of_the_method": "as §3"}, "[5]": {"tested_on": "S. aureus VSSA (ATCC 6538)", "experiment": "MIC, broth microdilution, vancomycin-sensitive S. aureus (VSSA/MSSA, ATCC 6538)", "assay_type": "cell-based, Staphylococcus aureus", "summary_of_the_method": "as §2"}, "S. aureus VISA/HIP5827": {"tested_on": "S. aureus VISA/HIP5827", "experiment": "MIC, broth microdilution, vancomycin-intermediate S. aureus VISA HIP5827", "assay_type": "cell-based, Staphylococcus aureus", "summary_of_the_method": "as §2"}, "S. aureus VRSA": {"tested_on": "S. aureus VRSA", "experiment": "MIC, broth microdilution, vancomycin-resistant S. aureus (VRSA)", "assay_type": "cell-based, Staphylococcus aureus", "summary_of_the_method": "as §2"}, "MRSA KS2": {"tested_on": "MRSA KS2", "experiment": "MIC, broth microdilution, MRSA KS2", "assay_type": "cell-based, Staphylococcus aureus", "summary_of_the_method": "as §2"}, "MRSA KS6": {"tested_on": "MRSA KS6", "experiment": "MIC, broth microdilution, MRSA KS6", "assay_type": "cell-based, Staphylococcus aureus", "summary_of_the_method": "as §2"}, "MRSA KS89": {"tested_on": "MRSA KS89", "experiment": "MIC, broth microdilution, MRSA KS89", "assay_type": "cell-based, Staphylococcus aureus", "summary_of_the_method": "as §2"}, "MRSA KS1": {"tested_on": "MRSA KS1", "experiment": "MIC, broth microdilution, MRSA KS1", "assay_type": "cell-based, Staphylococcus aureus", "summary_of_the_method": "as §2"}, "[6]": {"settings": "ratio of MIC of vancomycin and MIC of analogue"}}, "note": "pIC50: −log10 of the molar value. Like-named read-outs stand apart in the source and are kept apart here.", "data": [{"smiles": "C#Cc1ccc(/C=C/C(=O)NCCNC(=O)[C@H]2NC(=O)[C@H]3NC(=O)[C@H](NC(=O)[C@@H]4NC(=O)[C@H](CC(N)=O)NC(=O)[C@H](NC(=O)[C@@H](CC(C)C)NC)[C@H](O)c5ccc(c(Cl)c5)Oc5cc4cc(c5O[C@@H]4O[C@H](CO)[C@@H](O)[C@H](O)[C@H]4O[C@H]4C[C@](C)(N)[C@H](O)[C@H](C)O4)Oc4ccc(cc4Cl)[C@H]3O)c3ccc(O)c(c3)-c3c(O)cc(O)cc32)cc1", "note": "[Vanc-Q]", "values": [{"measurement": "MIC", "setting": "B. subtilis PSB3", "value": 0.39, "unit": "µM"}, {"measurement": "MICvanc/MICi", "setting": "B. subtilis PSB3; [6]", "value": 1}, {"measurement": "MIC", "setting": "E. coli XL-1 blue MRF'", "value": 12.5, "unit": "µM"}, {"measurement": "MICvanc/MICi", "setting": "E. coli XL-1 blue MRF'; [6]", "value": 8}, {"measurement": "MICvanc/MICi", "setting": "E. faecalis VSE 1; E. faecalis VSE 1, ratio of MIC of vancomycin and MIC of analogue", "value": 16}, {"measurement": "MIC", "setting": "E. faecalis VSE 1; E. faecalis VSE 1", "value": 0.10, "unit": "µM"}, {"measurement": "MIC", "setting": "E. faecalis VSE 1; Enterococcus faecalis VSE 1 (vancomycin-sensitive)", "value": 0.10, "unit": "µM"}, {"measurement": "MIC-fold improvement vs. vancomycin", "setting": "E. faecalis VSE 1; VSE 1, ratio of MIC of vancomycin and MIC of analogue", "value": 16}, {"measurement": "MICvanc/MICi", "setting": "E. faecalis VRE 6; E. faecalis VRE 6, ratio of MIC of vancomycin and MIC of analogue", "value": 32}, {"measurement": "MIC", "setting": "E. faecalis VRE 6; E. faecalis VRE 6", "value": 6.25, "unit": "µM"}, {"measurement": "MIC", "setting": "E. faecalis VRE 6; Enterococcus faecalis VRE 6 (vancomycin-resistant)", "value": 6.25, "unit": "µM"}, {"measurement": "MIC-fold improvement vs. vancomycin", "setting": "E. faecalis VRE 6; VRE 6, ratio of MIC of vancomycin and MIC of analogue", "value": 32}, {"measurement": "MICvanc/MICi", "setting": "E. faecalis VRE 53; E. faecalis VRE 53, ratio of MIC of vancomycin and MIC of analogue", "value": 64}, {"measurement": "MIC", "setting": "E. faecalis VRE 53; E. faecalis VRE 53", "value": 6.25, "unit": "µM"}, {"measurement": "MIC", "setting": "E. faecalis VRE 53; Enterococcus faecalis VRE 53 (vancomycin-resistant)", "value": 6.25, "unit": "µM"}, {"measurement": "MIC-fold improvement vs. vancomycin", "setting": "E. faecalis VRE 53; VRE 53, ratio of MIC of vancomycin and MIC of analogue", "value": 64}, {"measurement": "MIC", "setting": "E. faecalis VRE 29; Enterococcus faecalis VRE 29 (vancomycin-resistant), read-out: MIC", "value": 25, "unit": "µM"}, {"measurement": "MIC-fold improvement vs. vancomycin", "setting": "E. faecalis VRE 29; VRE 29, ratio of MIC of vancomycin and MIC of analogue", "value": 16}, {"measurement": "MIC", "setting": "E. faecalis VRE 37; Enterococcus faecalis VRE 37 (vancomycin-resistant), read-out: MIC", "value": 50, "unit": "µM"}, {"measurement": "MIC-fold improvement vs. vancomycin", "setting": "E. faecalis VRE 37; VRE 37, ratio of MIC of vancomycin and MIC of analogue", "value": 16}, {"measurement": "pIC50", "setting": "[1]", "value": "< 3.60"}, {"measurement": "pIC50", "setting": "[2]", "value": "< 3.60"}, {"measurement": "pIC50", "setting": "[3]", "value": "< 3.60"}, {"measurement": "pIC50", "setting": "[4]; average of L1210, CEM and HeLa, read-out: Toxicity (IC50) Average", "value": "< 3.60"}, {"measurement": "pIC50", "setting": "[4]; summary over the three cell lines, read-out: IC50 (L1210, CEM, HeLa), depending on the cell line used", "value": "< 3.60"}, {"measurement": "MIC", "setting": "[5]; Staphylococcus aureus VSSA, read-out: MIC", "value": 0.20, "unit": "µM"}, {"measurement": "MIC-fold improvement vs. vancomycin", "setting": "[5]; VSSA, ratio of MIC of vancomycin and MIC of analogue", "value": 4}, {"measurement": "MIC", "setting": "S. aureus VISA/HIP5827; Staphylococcus aureus VISA/HIP5827, read-out: MIC", "value": 1.56, "unit": "µM"}, {"measurement": "MIC-fold improvement vs. vancomycin", "setting": "S. aureus VISA/HIP5827; VISA/HIP5827, ratio of MIC of vancomycin and MIC of analogue", "value": 4}, {"measurement": "MIC", "setting": "S. aureus VRSA; Staphylococcus aureus VRSA, read-out: MIC", "value": 12.5, "unit": "µM"}, {"measurement": "MIC-fold improvement vs. vancomycin", "setting": "S. aureus VRSA; VRSA, ratio of MIC of vancomycin and MIC of analogue", "value": 8}, {"measurement": "MIC-fold improvement vs. vancomycin", "setting": "MRSA KS2; MRSA KS2, ratio of MIC of vancomycin and MIC of analogue", "value": 0.5}, {"measurement": "MIC", "setting": "MRSA KS2; Staphylococcus aureus MRSA KS2, read-out: MIC", "value": 1.56, "unit": "µM"}, {"measurement": "MIC-fold improvement vs. vancomycin", "setting": "MRSA KS6; MRSA KS6, ratio of MIC of vancomycin and MIC of analogue", "value": 1}, {"measurement": "MIC", "setting": "MRSA KS6; Staphylococcus aureus MRSA KS6, read-out: MIC", "value": 0.78, "unit": "µM"}, {"measurement": "MIC-fold improvement vs. vancomycin", "setting": "MRSA KS89; MRSA KS8, ratio of MIC of vancomycin and MIC of analogue", "value": 1}, {"measurement": "MIC", "setting": "MRSA KS89; Staphylococcus aureus MRSA KS8, read-out: MIC", "value": 0.78, "unit": "µM"}, {"measurement": "MIC-fold improvement vs. vancomycin", "setting": "MRSA KS1; MRSA KS1, ratio of MIC of vancomycin and MIC of analogue", "value": 2}, {"measurement": "MIC", "setting": "MRSA KS1; Staphylococcus aureus MRSA KS1, read-out: MIC", "value": 0.39, "unit": "µM"}]}]}
